Patent publication US20040242591A1, “Oxazolidinone derivatives as pontential antimicrobials” (priority 2001, published 2004)

Columns and labels:
Ent. faecalis ATCC 29212 = assay: MIC by agar incorporation method, E.faecalis 29212; format: cell-based, Enterococcus faecalis; set-up: unit not given here; conditions: Mueller Hinton agar, 10^4 CFU/spot, 18 hours
Description: 3) Ent. faecalis ATCC 29212—Enterococcus faecalis ATCC 29212

MRSA 33 = assay: MIC by agar incorporation method, MRSA 33; format: cell-based, Methicillin Resistant Staphylococcus aureus; set-up: unit not given here; conditions: Mueller Hinton agar, 10^4 CFU/spot, 24 hours
Strep. pne. ATCC 6303 = assay: MIC by agar incorporation method, S. pneum 6303; format: cell-based, Streptococcus pneumoniae; conditions: Mueller Hinton agar, 10^4 CFU/spot, 18 hours
Description: 5) Strep. pne. ATCC 6303—Streptococcus pneumoniae ATCC 6303

MRSA 15187 = assay: MIC by agar incorporation method, MRSA 15187; format: cell-based, Methicillin Resistant Staphylococcus aureus; set-up: unit not given here; conditions: Mueller Hinton agar, 10^4 CFU/spot, 24 hours
Description: 2) MRSA 15187—Methicillin Resistant Staphylococcus aureus

S.aureus ATCC 25923 = assay: MIC by agar incorporation method, S.aureus 25923; format: cell-based, Staphylococus aureus; set-up: unit not given here; conditions: Mueller Hinton agar, 10^4 CFU/spot, 18 hours
VRE 6A = assay: MIC by agar incorporation method, VRE 6A; format: cell-based, Enterococcus faecium; set-up: unit not given here; conditions: Mueller Hinton agar, 10^4 CFU/spot, 18 hours
Description: 4) Ent. faecium […]—Enterococcus faecium 6A Van®, Cipro®

Strep.pyog. ATCC 19615 = assay: MIC by agar incorporation method, S.pyogenes 19615; format: cell-based, Streptococcus pyogenes; set-up: unit not given here; conditions: Mueller Hinton agar, 10^4 CFU/spot, 18 hours
Description: 6) Strep.pyog. ATCC 19615—Streptococcus pyogenes

S. pneum AB 34 = assay: MIC by agar incorporation method, S. pneum AB 34; format: cell-based, Streptococcus pneumoniae; set-up: unit not given here; conditions: Mueller Hinton agar, 10^4 CFU/spot, 18 hours
MRSA 562 = assay: MIC by agar incorporation method, MRSA 562; format: cell-based, Methicillin Resistant Staphylococcus aureus; set-up: unit not given here; conditions: Mueller Hinton agar, 10^4 CFU/spot, 24 hours

Row | SMILES | In Vitro (MIC) E.faecalis 29212 (Ent. faecalis ATCC 29212) | In Vitro (MIC) MRSA 33 (MRSA 33) | In Vitro (MIC) S. pneum 6303 (Strep. pne. ATCC 6303) [µg/mL] | In Vitro (MIC) MRSA 15187 (MRSA 15187) | In Vitro (MIC) S.aureus 25923 (S.aureus ATCC 25923) | In Vitro (MIC) VRE 6A (VRE 6A) | In Vitro (MIC) S.pyogenes 19615 (Strep.pyog. ATCC 19615) | In Vitro (MIC) S. pneum AB 34 (S. pneum AB 34) | In Vitro (MIC) MRSA 562 (MRSA 562)
1 | CC(=O)NC[C@H]1CN(c2ccc(N3C(C)CN(C(=O)Cc4cccs4)CC3C)c(F)c2)C(=O)O1 (stereo partly drawn) [Compound No. 66, (S)-N-[[3-[3-Fluoro-4-[N-1-[2,6-dimethyl-4-(2-thienylacetyl)]-piperazinyl]phenyl]-2-oxo-5-oxazolidinyl]methyl]acetamide] | 8 | 8 | 16 | 8 | 8 | 8 | 16 | 16 | 8
2 | CC(=O)NC[C@H]1CN(c2ccc(N3CCN(Cc4cc(N(C)C)c([N+](=O)[O-])s4)CC3)c(F)c2)C(=O)O1 [Compound No. 19, (S)-N-[[3-[3-Fluoro-[N-1-[4-{2-thiophen-(4-dimethylamino-5-nitro)methyl}]piperazinyl]phenyl]-2-oxo-5-oxazolidinyl]methyl]-acetamide] | 4 | 8 | 2 | 4 | 4 | 4 | 2 | 2 | 8
3 | CC(Cl)C(=O)NC[C@H]1CN(c2ccc(N3CCN(Cc4cc(Br)c([N+](=O)[O-])s4)CC3)c(F)c2)C(=O)O1 (stereo partly drawn) [Compound No. 51] | 8 | 8 | 16 | 8 | 8 | 8 | 16 | 16 | 8
4 | CC(=O)NC[C@H]1CN(c2ccc(N3CCN(C(=O)c4cc(N(C)C)c([N+](=O)[O-])s4)CC3)c(F)c2)C(=O)O1 [Compound No. 38] | 4 | 4 | 2 | 4 | 8 | 4 | 2 | 2 | 4
5 | O=C(CCl)NC[C@H]1CN(c2ccc(N3CCN(Cc4ccc([N+](=O)[O-])s4)CC3)c(F)c2)C(=O)O1 [Compound No. 47, (S)-N-[[3-[3-Fluoro-4[N-1[4-[2-thiophenyl-(5-nitro)methyl}]piperazinyl]-phenyl]-2-oxo-5-oxazolidinyl]methyl]monochloroacetamide] | 4 | 4 | 2 | 4 | 4 | 4 | 1 | 4 | 4
6 | CC(=O)NC[C@H]1CN(c2ccc(N3CCN(C(=O)Cc4cccs4)C(C)C3)c(F)c2)C(=O)O1 (stereo partly drawn) [Compound No. 68, (S)-N-[[3-[3-Fluoro-4-[N-1-[3-methyl-4-{2-thienylacetyl-}]-piperazinyl]phenyl]-2-oxo-5-oxazolidinyl]methyl]acetamide] | 4 | 4 | 4 | 4 | 4 | 4 | 2 | 4 | 4
7 | CC(=O)NC[C@H]1CN(c2ccc(N3CCN(C(=O)c4occc4C)CC3)c(F)c2)C(=O)O1 [Compound No. 36, (S)-N-[[3-[3-Fluoro-4-[N-1-[4-{2-furoyl-(3-methyl)}]piperazinyl]phenyl]-2-oxo-5-oxazolidinyl]methyl]acetamide] | 2 | 2 | 0.5 | 2 | 2 | 1 | 1 | 1 | 2
8 | CC(=O)NC[C@H]1CN(c2ccc(N3C(C)CN(Cc4ccc([N+](=O)[O-])o4)CC3C)c(F)c2)C(=O)O1 (stereo partly drawn) [Compound No. 63, (S)-N-[[3-[3-Fluoro-4-[N-1-[2,6-dimethyl-4-{2-furyl-(5-nitro)methyl-}]-piperazinyl]phenyl]-2-oxo-5-oxazolidinyl]methyl]acetamide] | 8 | 8 | 16 | 8 | 16 | 8 | 16 | 16 | 8
9 | CC(=O)NC[C@H]1CN(c2ccc(N3CCN(C(=O)c4ccc([N+](=O)[O-])o4)C(C)C3)c(F)c2)C(=O)O1 (stereo partly drawn) [Compound No. 69, (S)-N-[[3-[3-Fluoro-4-[N-1-[3-methyl-4-{2-furoyl-(5-nitro)}]-piperazinyl]phenyl]-2-oxo-5-oxazolidinyl]methyl]acetamide] | 0.5 | 1 | 8 | 1 | 1 | 0.5 | 2 | 8 | 0.5
10 | CC(=O)NC[C@H]1CN(c2ccc(N3CCN(Cc4ccc([N+](=O)[O-])o4)CC3C)c(F)c2)C(=O)O1 (stereo partly drawn) [Compound No. 58, (S)-N-[[3-[3-Fluoro-4-[N-1-[2-methyl-4-{2-furyl(5-nitro)methyl}]-piperazinyl]phenyl]-2-oxo-5-oxazolidinyl]methyl]acetamide] | 4 | 4 | 8 | 4 | 4 | 4 | 4 | 16 | 2

Now from value to compound:

Row | In Vitro (MIC) E.faecalis 29212 (Ent. faecalis ATCC 29212) | In Vitro (MIC) MRSA 33 (MRSA 33) | In Vitro (MIC) S. pneum 6303 (Strep. pne. ATCC 6303) [µg/mL] | In Vitro (MIC) MRSA 15187 (MRSA 15187) | In Vitro (MIC) S.aureus 25923 (S.aureus ATCC 25923) | In Vitro (MIC) VRE 6A (VRE 6A) | In Vitro (MIC) S.pyogenes 19615 (Strep.pyog. ATCC 19615) | In Vitro (MIC) S. pneum AB 34 (S. pneum AB 34) | In Vitro (MIC) MRSA 562 (MRSA 562) | SMILES
11 | 0.5 | 1 | 2 | 1 | 1 | 0.5 | <0.25 | 2 | 1 | CC(=O)NC[C@H]1CN(c2ccc(N3CCC(NCc4ccc([N+](=O)[O-])o4)CC3)c(F)c2)C(=O)O1 [Compound No. 86, (S)-N-[[3-[3-Fluoro-4-[4-{N-2-furyl-(5-nitro)methyl}-aminopiperidine-1-yl]phenyl]-2-oxo-5-oxazolidinyl]methyl]acetamide]
12 | 0.5 | <0.25 | 1 | <0.25 | <0.25 | 1 | <0.25 | 1 | <0.25 | CC(=O)NC[C@H]1CN(c2ccc(N3CCC(N(C)C(=O)c4ccc([N+](=O)[O-])s4)C3)c(F)c2)C(=O)O1 (stereo partly drawn) [Compound No. 91]
13 | >8 | 4 | >8 | 2 | 4 | >8 | >8 | >8 | 2 | CC(=O)NC[C@H]1CN(c2ccc(N3CCN(Cc4oc(C=O)cc4C)CC3)c(F)c2)C(=O)O1 [Compound No. 71]
14 | >8 | 4 | 4 | 4 | 4 | >8 | 2 | 4 | 4 | CC(=O)NC[C@H]1CN(c2ccc(N3CCC(N=Cc4ccc([N+](=O)[O-])o4)CC3)c(F)c2)C(=O)O1 [Compound No. 85, (S)-N-[[3-[3-Fluoro-4-[4-{2-furyl-(5-nitro)methylene]-aminopiperidine-1-yl]phenyl]-2-oxo-5-oxazolidinyl]methyl]acetamide]
15 | >8 | >8 | 4 | >8 | >8 | 8 | 2 | 4 | >8 | CC(=O)NC[C@H]1CN(c2ccc(N3CC4C(CNCc5ccc([N+](=O)[O-])o5)C4C3)c(F)c2)C(=O)O1 (stereo partly drawn) [Compound No. 99, (S)-N-[[3-[3-Fluoro-4[N-1-[3-{N-2-furyl-(5-nitro)methyl}-aminomethyl]-3-azabicyclo[3.1.0]hexane]phenyl]-2-oxo-5-oxazolidinyl]methyl]acetamide]
